# Experimental data from US8318657B2, “Methods and compositions for preventing and/or treating pancreatitis” (Flinders Technologies Pty Ltd., priority 2005, dated 2012).
# Entries after “also recorded” stand apart in the source; their conditions may differ. Square brackets hold non-standard residues; d marks the D form. Ends that are not written are not given here. Peptide text beside a SMILES is read from it.
# Legend:
# [1] = test system: caerulein-induced acute pancreatitis (AP) in mice; assay: Caerulein-induced acute pancreatitis in mice (mild model, 7 hourly i.p. injections) with galanin or galanin antagonists; assay type: in vivo, mouse (female Balb C or Swiss); settings: mouse caerulein AP
# [2] = test system: mice without acute pancreatitis; assay: Control groups: mice given galanin or galanin antagonist alone (saline, no caerulein); settings: mice without AP
# GALR2 = biological target: T1, GALR2 (Homo sapiens, UniProt O43603); settings: GALR2 vs GALR1; cited from earlier work
# T1 sequence (O43603 1-387): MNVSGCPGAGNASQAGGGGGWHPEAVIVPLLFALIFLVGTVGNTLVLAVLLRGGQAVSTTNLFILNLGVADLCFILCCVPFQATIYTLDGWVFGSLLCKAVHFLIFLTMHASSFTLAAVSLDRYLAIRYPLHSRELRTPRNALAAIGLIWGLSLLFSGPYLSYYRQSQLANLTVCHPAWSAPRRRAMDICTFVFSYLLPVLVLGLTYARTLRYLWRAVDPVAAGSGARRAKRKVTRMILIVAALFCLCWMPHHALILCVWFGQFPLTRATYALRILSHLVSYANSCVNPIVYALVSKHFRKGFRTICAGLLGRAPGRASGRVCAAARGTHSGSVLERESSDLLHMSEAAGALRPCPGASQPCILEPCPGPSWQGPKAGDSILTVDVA
# [3] = 20 nmol/kg i.p. with each caerulein injection, reduction of AP-induced level
# [4] = 40 nmol/kg i.p. with each caerulein injection, vs AP alone
# [5] = dose not given (20 and 40 nmol/kg tested)
# [6] = dose not given (20 and 40 nmol/kg tested), decrease of AP-induced level
# [7] = 40 nmol/kg i.p. with each caerulein injection, reduction of AP-induced level
molecule,measurement,setting,value
Galanin(1-13)-Pro-Pro-Ala-Leu-Ala-Leu-Ala amide (GWTLNSAGYLLGPPPALALA-NH2) [M40],pancreatic acinar cell vacuolization score,[1]; 20 nmol/kg,significantly reduced
same,pancreatic myeloperoxidase (MPO) activity,[1]; [3],significantly reduced
same,pancreatic acinar cell vacuolization score,[1]; 40 nmol/kg,significantly reduced
same,pancreatic myeloperoxidase (MPO) activity,[1]; [4],significantly reduced
same,pancreatitis-induced plasma hyperenzymemia,"[1]; co-treatment, 20 and 40 nmol/kg tested",failure to reduce the pancreatitis-induced plasma hyperenzymemia
same,pancreatic acinar cell necrosis score,[1]; [5],without effect
same,pancreatic acinar cell vacuolization score,[1]; [5],did
same,pancreatic myeloperoxidase (MPO) activity,[1]; [6],decreased
"CC(C)C[C@H](NC(=O)[C@H](CC(C)C)NC(=O)[C@@H](Cc1c[nH]c2ccccc12)NC(=O)[C@H](Cc1ccccc1)NC(=O)[C@@H](Cc1c[nH]c2ccccc12)NC(=O)[C@H](CCC(N)=O)NC(=O)[C@H](CCC(N)=O)NC(=O)[C@@H]1CCCN1C(=O)[C@H](CCCCN)NC(=O)[C@@H]1CCCN1C(=O)[C@@H](CCCNC(=N)N)NC(=O)[C@@H]1CCCN1C(=O)CNC(=O)[C@H](CC(C)C)NC(=O)[C@H](CC(C)C)NC(=O)[C@H](Cc1ccc(O)cc1)NC(=O)CNC(=O)[C@H](C)NC(=O)[C@H](CO)NC(=O)[C@H](CC(N)=O)NC(=O)[C@H](CC(C)C)NC(=O)[C@@H](NC(=O)[C@H](Cc1c[nH]c2ccccc12)NC(=O)CN)[C@@H](C)O)C(N)=O [C7, Galanin(1-13)-spantide amide] (H-GWTLNSAGYLLGP[dR]PKPQQ[dW]F[dW]LL-NH2)",pancreatic myeloperoxidase (MPO) activity,[2]; 40 nmol/kg alone,produced an increase in pancreatic MPO activity; also recorded: significantly elevated pancreatic MPO activity
CC(C)C[C@H](NC(=O)CNC(=O)[C@H](CC(N)=O)NC(=O)[C@H](CCCCN)NC(=O)[C@H](CC(=O)O)NC(=O)[C@H](CO)NC(=O)[C@H](Cc1ccccc1)NC(=O)[C@H](CO)NC(=O)[C@H](CCCNC(=N)N)NC(=O)[C@H](Cc1cnc[nH]1)NC(=O)[C@H](CC(N)=O)NC(=O)CNC(=O)[C@@H](NC(=O)[C@H](C)NC(=O)[C@H](Cc1cnc[nH]1)NC(=O)[C@@H]1CCCN1C(=O)CNC(=O)[C@H](CC(C)C)NC(=O)[C@H](CC(C)C)NC(=O)[C@H](Cc1ccc(O)cc1)NC(=O)CNC(=O)[C@H](C)NC(=O)[C@H](CO)NC(=O)[C@H](CC(N)=O)NC(=O)[C@H](CC(C)C)NC(=O)[C@@H](NC(=O)[C@H](Cc1c[nH]c2ccccc12)NC(=O)CN)[C@@H](C)O)C(C)C)C(=O)N[C@H](C(=O)N[C@@H](CO)C(=O)O)[C@@H](C)O [Galanin],plasma amylase activity,"[2]; 10 nmol/kg alone, vs baseline",did not increase plasma amylase activity above baseline activity
same,plasma lipase activity,"[2]; 10 nmol/kg alone, vs baseline",did not increase plasma lipase activity above baseline activity
same,pancreatic myeloperoxidase (MPO) activity,"[2]; 10 nmol/kg alone, vs saline control",did not significantly increase pancreatic MPO activity above that measured in saline control
"Galanin 2-29: galanin fragment 2-29 (WTLNSAGYLLGPHAVGNHRSFSDKNGLT; ends and bridges not checked; UniProt P22466 34-61, looked up, fragment)",affinity for GALR2 relative to GALR1,GALR2,higher affinity than GALR1
M35: GWTLNSAGYLLGPPPGFSPFR (SEQ ID NO: 15); amino terminal portion of galanin linked to bradykinin,pancreatic myeloperoxidase (MPO) activity,[1]; [3],significantly reduced
same,pancreatic acinar cell necrosis score,"[1]; 40 nmol/kg (high dose), histology scoring system",reduced the necrosis score; also recorded: significantly reduced
same,plasma amylase activity,[1]; [7],depressed; also recorded: significantly reduced
same,plasma lipase activity,[1]; [7],significantly reduced
same,pancreatic myeloperoxidase (MPO) activity,[1]; [4],significantly reduced
same,pancreatic acinar cell vacuolization score,[1]; [5],failed to improve the acute pancreatitic-induced vacuolization; also recorded: without effect
same,pancreatic myeloperoxidase (MPO) activity,[1]; [6],decreased
